According to article PMC9428768 (RSC Chemical Biology, 2022):

Columns and labels:
HeLa cells = assay: MTT assay; type: cell-based; conditions: Homo sapiens, 48 h, read-out: Cytotoxicity (HeLa cells)
PBD = conditions: cited from earlier work

Compound	IC50 (HeLa cells) [nM]	less PBD-binding affinity than peptide 2 (PBD)
CC[C@@H]1C(=O)N(C)c2cnc(Nc3ccc(C(=O)NC4CCN(C)CC4)cc3OC)nc2N1C1CCCC1 [BI2536]	32 ± 1.6	–
PLHSpT [Ligand 1]	–	approximately 1000 fold
